These results are taken from article PMC5217372, “Activation of SsoPK4, an Archaeal eIF2α Kinase Homolog, by Oxidized CoA” (Proteomes, 2015).

The subject of data set [1] is rSsoPK4(284–635). In words: Protein kinase activity assay (filter paper method, [γ-32P]ATP, 65 °C) of rSsoPK4(284–635). The note with it: for Inhibitor: effector at 100 µM, MBP as phosphoacceptor substrate; for perturbed the activity of rSsoPK4: compound at 100 µM; for Km / Vmax toward protein substrate: no CoAS-SCoA, label = protein substrate, estimated. Format: biochemical, Sulfolobus solfataricus. On the procedure:
(§1) Protein kinase activity was routinely assayed by the filter paper method of Corbin and Reimann as modified by Lower and Kennelly. The final volume of the assays was typically 50 μL. The quantity of rSsoPK4 assayed ranged from 0.1 to 5.0 µg. Both MgCl2 and MnCl2 were included at a final concentration of 5 mM each. The final concentration of [γ-^32P]ATP was 100 μM. The specific activity of the [γ-^32P]ATP generally ranged from 2 to 5 × 10^15 cpm/mol. Phosphoacceptor proteins were generally present at a concentration of 0.5–1.0 µg/µL. The assay mixture was typically incubated for a period of 30 min to one hour at 65 °C in 50 mM MOPS pH 7.0. On occasion, the proteins within the assay mixture were resolved by SDS-PAGE in order to identify the specific polypeptides that were phosphorylated. Radiolabeled species were visualized using an Instant Imager from Packard (Downers Grove, IL, USA).

Data set [2] has as its target T1, rSsoPK4(284–635) (Saccharolobus solfataricus, UniProt Q97U41).
T1 construct: gene SSO3182; residues 284–635 (catalytic and part of central helical repeat domain), N-terminal S-tag, C-terminal 33-residue fusion domain with polyhistidine motif, pET-29b, expressed in E. coli
T1 sequence (Q97U41 284-635): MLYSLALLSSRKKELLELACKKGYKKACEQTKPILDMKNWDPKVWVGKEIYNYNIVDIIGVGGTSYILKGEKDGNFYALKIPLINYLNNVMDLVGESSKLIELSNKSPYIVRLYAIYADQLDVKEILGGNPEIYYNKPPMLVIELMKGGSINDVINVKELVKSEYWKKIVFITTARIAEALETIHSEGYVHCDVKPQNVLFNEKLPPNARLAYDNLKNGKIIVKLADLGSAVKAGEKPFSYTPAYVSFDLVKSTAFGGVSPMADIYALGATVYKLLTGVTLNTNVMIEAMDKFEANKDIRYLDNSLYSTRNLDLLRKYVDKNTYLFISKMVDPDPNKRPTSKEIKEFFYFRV
In words: Filter paper [γ-32P]ATP kinase assay with MBP as phosphoacceptor, ATP routinely 100 µM, 5 mM MgCl2 and 5 mM MnCl2, 50 mM MOPS pH 7.0, 65 °C, in the presence of nucleotide effectors. The format is biochemical. On the procedure: as §1

Data set [3] concerns rSsoPK4(284–635) T592D/T606D/S611D. In words: Protein kinase activity assay of rSsoPK4(284–635) T592D/T606D/S611D. The format is biochemical, Sulfolobus solfataricus. Conditions: no CoAS-SCoA; label = protein substrate. The protocol: Figure 9 CoAS-SCoA activates rSsoPK4(284–635), but not rSsoPK4(284–635) T592D/T606D/S611D, in a concentration-dependent manner. The activity of rSsoPK4(284–635) (OPEN […]) and rSsoPK4(284–635) T592D/T606D/S611D (OPEN CIRCLES) were assayed, in duplicate, in the presence of the indicated concentrations of CoAS-SCoA using MBP as substrate. Shown is a plot of the activity relative to that measured in the absence of CoAS-SCoA, which was normalized as 1.0, plus or minus mean average deviation.

Where “and” joins values, the source holds several entries; their conditions need not be identical. Equal values may be shown once.

Consider `CC(C)(COP(=O)(O)OP(=O)(O)OC[C@H]1O[C@@H](n2cnc3c(N)ncnc32)[C@H](O)[C@@H]1OP(=O)(O)O)[C@@H](O)C(=O)NCCC(=O)NCCS` [CoASH, reduced CoA], for which, in the data set with rSsoPK4(284–635) [1], the Inhibitor entry is on record as “N (Where a change of ±20% or less in enzyme activity was observed, the compound was designated as non-inhibitory (N))”.

As for `NC(=O)c1ccc[n+]([C@@H]2O[C@H](COP(=O)([O-])OP(=O)(O)OC[C@H]3O[C@@H](n4cnc5c(N)ncnc54)[C@H](OP(=O)(O)O)[C@@H]3O)[C@@H](O)[C@H]2O)c1` [NADP^+], in the data set with rSsoPK4(284–635) [1], the Inhibitor result is “N (Where a change of ±20% or less in enzyme activity was observed, the compound was designated as non-inhibitory (N))”.

As to `Nc1ncnc2c1ncn2[C@@H]1O[C@H](COP(=O)(O)OS(=O)(=O)O)[C@@H](O)[C@H]1O` [Adenosine phosphosulfate], in the data set with rSsoPK4(284–635) [1], the “perturbed the activity of rSsoPK4” value was “perturbed the activity” and the Inhibitor result is listed as “Y (designated as inhibitors (Y) if they were observed to stimulate or reduce, respectively, catalytic activity by greater than 20% relative to controls lacking added effectors)”.

On to `Nc1ncnc2c1ncn2[C@@H]1O[C@H](CO)[C@H]2OP(=O)(O)O[C@H]21` [2ʹ,3ʹ-cAMP, 2ʹ,3ʹ-cyclic AMP], for which, on rSsoPK4(284–635) [2], the half-inhibitory concentration (IC50) amounted to 1550 µM.

Consider `NC(=O)C1=CN([C@@H]2O[C@H](COP(=O)(O)OP(=O)(O)OC[C@H]3O[C@@H](n4cnc5c(N)ncnc54)[C@H](OP(=O)(O)O)[C@@H]3O)[C@@H](O)[C@H]2O)C=CC1` [NADPH], for which the Inhibitor result with rSsoPK4(284–635) [1] was “N (Where a change of ±20% or less in enzyme activity was observed, the compound was designated as non-inhibitory (N))”.

`Nc1ccn([C@@H]2O[C@H](COP(=O)(O)O)[C@@H](O)[C@H]2O)c(=O)n1` [5ʹ-CMP]: the Inhibitor entry in the data set on rSsoPK4(284–635) [1] is listed as “N (Where a change of ±20% or less in enzyme activity was observed, the compound was designated as non-inhibitory (N))”.

For the molecule `NC(=O)c1ccc[n+]([C@@H]2O[C@H](COP(=O)([O-])OP(=O)(O)OC[C@H]3O[C@@H](n4cnc5c(N)ncnc54)[C@H](O)[C@@H]3O)[C@@H](O)[C@H]2O)c1` [NAD^+], the Inhibitor result with rSsoPK4(284–635) [1] was “N (Where a change of ±20% or less in enzyme activity was observed, the compound was designated as non-inhibitory (N))”.

As for `Nc1ncnc2c1ncn2[C@@H]1O[C@H](CO)[C@@H](OP(=O)(O)O)[C@H]1O` [3ʹ-AMP], in the data set on rSsoPK4(284–635) [1], the “perturbed the activity of rSsoPK4” value is “perturbed the activity” and the Inhibitor result is recorded as “Y (designated as inhibitors (Y) if they were observed to stimulate or reduce, respectively, catalytic activity by greater than 20% relative to controls lacking added effectors)”.

For the molecule `C[S+](CC[C@H](N)C(=O)[O-])C[C@H]1O[C@@H](n2cnc3c(N)ncnc32)[C@H](O)[C@@H]1O` (stereo partly drawn) [S-Adenosyl-Methionine], the Inhibitor entry with rSsoPK4(284–635) [1] is “N (Where a change of ±20% or less in enzyme activity was observed, the compound was designated as non-inhibitory (N))”.

Consider `Nc1nc2c(ncn2[C@@H]2O[C@H](COP(=O)(O)O)[C@@H](O)[C@H]2O)c(=O)[nH]1` [5ʹ-GMP], for which, in the data set on rSsoPK4(284–635) [1], the Inhibitor result is “N (Where a change of ±20% or less in enzyme activity was observed, the compound was designated as non-inhibitory (N))”.

As for `NC(=O)C1=CN([C@@H]2O[C@H](COP(=O)(O)OP(=O)(O)OC[C@H]3O[C@@H](n4cnc5c(N)ncnc54)[C@H](O)[C@@H]3O)[C@@H](O)[C@H]2O)C=CC1` [NADH], the Inhibitor result in the data set on rSsoPK4(284–635) [1] is reported as “N (Where a change of ±20% or less in enzyme activity was observed, the compound was designated as non-inhibitory (N))”.

Regarding `Nc1ncnc2c1ncn2[C@H]1C[C@H](O)[C@@H](COP(=O)(O)O)O1` [5ʹ-dAMP], the Inhibitor result with rSsoPK4(284–635) [1] is on record as “N (Where a change of ±20% or less in enzyme activity was observed, the compound was designated as non-inhibitory (N))”.

Turning to `Cc1ncc(C[n+]2csc(CCOP(=O)(O)OP(=O)(O)O)c2C)c(N)n1` [Thiamine-PPi], the Inhibitor result in the data set with rSsoPK4(284–635) [1] is “N (Where a change of ±20% or less in enzyme activity was observed, the compound was designated as non-inhibitory (N))”.

Take `Nc1nc2c(ncn2[C@@H]2O[C@H](COP(=O)(O)OP(=O)(O)OP(=O)(O)O)[C@@H](O)[C@H]2O)c(=O)[nH]1` [GTP]: the Inhibitor result in the data set with rSsoPK4(284–635) [1] was “N (Where a change of ±20% or less in enzyme activity was observed, the compound was designated as non-inhibitory (N))”.

On to `Nc1ncnc2c1ncn2[C@@H]1O[C@H](CSCC[C@H](N)C(=O)O)[C@@H](O)[C@H]1O` [S-Adenosyl-homocysteine], for which, in the data set with rSsoPK4(284–635) [1], the Inhibitor entry is listed as “N (Where a change of ±20% or less in enzyme activity was observed, the compound was designated as non-inhibitory (N))”.

Consider `Nc1ncnc2c1ncn2[C@@H]1O[C@H](CO)[C@H]2OP(=O)(O)O[C@H]21` [2ʹ,3ʹ-cAMP], for which, in the data set on rSsoPK4(284–635) [1], the “perturbed the activity of rSsoPK4” value is given as “perturbed the activity” and the Inhibitor result is “Y (designated as inhibitors (Y) if they were observed to stimulate or reduce, respectively, catalytic activity by greater than 20% relative to controls lacking added effectors)”.

Take Oxidized glutathione: in the data set on rSsoPK4(284–635) [1] (MBP substrate, compounds at 1 mM (Figure 8)), the “effect on protein kinase activity toward MBP” value is on record as “no effect”.

On to `Cc1cc2nc3c(=O)[nH]c(=O)nc-3n(C[C@H](O)[C@H](O)[C@H](O)COP(=O)(O)OP(=O)(O)OC[C@H]3O[C@@H](n4cnc5c(N)ncnc54)[C@H](O)[C@@H]3O)c2cc1C` [FAD^+], for which the Inhibitor result in the data set with rSsoPK4(284–635) [1] is listed as “N (Where a change of ±20% or less in enzyme activity was observed, the compound was designated as non-inhibitory (N))”.

As for `Nc1ncnc2c1ncn2[C@@H]1O[C@H](COP(=O)(O)O)[C@@H](O)[C@H]1O` [5'AMP, 5ʹ-AMP], in the data set with rSsoPK4(284–635) [1], the “perturbed the activity of rSsoPK4” value was “perturbed the activity” and the Inhibitor entry is recorded as “Y (designated as inhibitors (Y) if they were observed to stimulate or reduce, respectively, catalytic activity by greater than 20% relative to controls lacking added effectors)”.

As for `CC(=O)SCCNC(=O)CCNC(=O)[C@H](O)C(C)(C)COP(=O)(O)OP(=O)(O)OC[C@H]1O[C@@H](n2cnc3c(N)ncnc32)[C@H](O)[C@@H]1OP(=O)(O)O` [Acetyl-CoA], the Inhibitor entry in the data set with rSsoPK4(284–635) [1] is reported as “N (Where a change of ±20% or less in enzyme activity was observed, the compound was designated as non-inhibitory (N))”.

As for `Nc1ncnc2c1ncn2[C@@H]1O[C@H](COP(=O)(O)OP(=O)(O)O)[C@@H](O)[C@H]1O` [ADP], in the data set with rSsoPK4(284–635) [1], the “perturbed the activity of rSsoPK4” value was “perturbed the activity” and the Inhibitor result was “Y (designated as inhibitors (Y) if they were observed to stimulate or reduce, respectively, catalytic activity by greater than 20% relative to controls lacking added effectors)”.

Turning to `Nc1ncnc2c1ncn2[C@@H]1O[C@H](COP(=O)(O)OS(=O)(=O)O)[C@@H](OP(=O)(O)O)[C@H]1O` [Phosphoadenosine phosphosulfate], the Inhibitor entry with rSsoPK4(284–635) [1] is given as “N (Where a change of ±20% or less in enzyme activity was observed, the compound was designated as non-inhibitory (N))”.

`O=c1ccn([C@@H]2O[C@H](COP(=O)(O)O)[C@@H](O)[C@H]2O)c(=O)[nH]1` [5ʹ-UMP]: in the data set with rSsoPK4(284–635) [1], the Inhibitor entry is listed as “N (Where a change of ±20% or less in enzyme activity was observed, the compound was designated as non-inhibitory (N))”.

B1: MBP: myelin basic protein, exogenous phosphoacceptor substrate (protein, UniProt P02687 1-169, looked up)
Myelin basic protein: AAQKRPSQRSKYLASASTMDHARHGFLPRHRDTGILDSLGRFFGSDRGAPKRGSGKDGHHAARTTHYGSLPQKAQGHRPQDENPVVHFFKNIVTPRTPPPSQGKGRGLSLSRFSWGAEGQKPGFGYGGRASDYKSAHKGLKGHDAQGTLSKIFKLGGRDSRSGSPMARR
Take B1: in the data set with rSsoPK4(284–635) [1], the Km is 145 µM and the “Vmax toward protein substrate” value was 3.7 nmol/min/mg. Also, in data set [3], the Michaelis-Menten constant (Km) turned out to be 17 µM and the “Vmax toward protein substrate” value was 4.2 nmol/min/mg.

B2: aIF2α: recombinant protein product of ORF sso1050, archaeal homologue of eIF2α from S. solfataricus (protein, UniProt Q97Z79 1-266, looked up)
Translation initiation factor …: MIYSRSKLPSEGEILIATVKQVFDYGSYVSLDEYGGLQAFLPWSEVSSKWVKNIRDVLKENRKVIVKVIRVDRRKGTVDVSLKKVTDDERRKKNLQWKKIQRLDKILELVSQKLKLSEKDAWEQVAWKLEAKYGDPITAIEKAVKEGEKILIDAGVPEIWVKPLLEEASKHAEERKVKMSGLITVRTNEPLGVEKIKEVISKALENIEQDYESLLNIKIYTIGAPRYRVDVVGTNPKEASEALNQIISNLIKIGKEENVDISVVKK
For B2, in the data set on rSsoPK4(284–635) [1], the Michaelis constant (Km) was ~48 µM and 48 µM; the “Vmax toward protein substrate” value was 4.2 nmol/min/mg. In data set [3], the Michaelis constant (Km) came to 4 µM and the “Vmax toward protein substrate” value was determined as 1.9 nmol/min/mg.

A word on the IC50: it is the midpoint of a concentration-inhibition curve. As a reminder, the Km is the concentration of substrate that gives half-maximal velocity.
